Test results: ChEMBL document CHEMBL4177716, “Design, synthesis and pharmacological evaluation of some novel indanone derivatives as acetylcholinesterase inhibitors for the management of cognitive dysfunction” (Bioorg Med Chem, 2018)
Active and inactive are the calls of the source. The calls are words filed in the database; no cut-off is given here.

Experiments:
[1] = molecular target: T1, Acetylcholinesterase (Mus musculus) (UniProt P21836); test: Inhibition of AchE in albino LACA mouse brain at 10^-3 M using acetylthiocholine iodide as substrate incubated for 10 mins measured for 2 mins by Ellman's method relative to control
T1 sequence (whole entry): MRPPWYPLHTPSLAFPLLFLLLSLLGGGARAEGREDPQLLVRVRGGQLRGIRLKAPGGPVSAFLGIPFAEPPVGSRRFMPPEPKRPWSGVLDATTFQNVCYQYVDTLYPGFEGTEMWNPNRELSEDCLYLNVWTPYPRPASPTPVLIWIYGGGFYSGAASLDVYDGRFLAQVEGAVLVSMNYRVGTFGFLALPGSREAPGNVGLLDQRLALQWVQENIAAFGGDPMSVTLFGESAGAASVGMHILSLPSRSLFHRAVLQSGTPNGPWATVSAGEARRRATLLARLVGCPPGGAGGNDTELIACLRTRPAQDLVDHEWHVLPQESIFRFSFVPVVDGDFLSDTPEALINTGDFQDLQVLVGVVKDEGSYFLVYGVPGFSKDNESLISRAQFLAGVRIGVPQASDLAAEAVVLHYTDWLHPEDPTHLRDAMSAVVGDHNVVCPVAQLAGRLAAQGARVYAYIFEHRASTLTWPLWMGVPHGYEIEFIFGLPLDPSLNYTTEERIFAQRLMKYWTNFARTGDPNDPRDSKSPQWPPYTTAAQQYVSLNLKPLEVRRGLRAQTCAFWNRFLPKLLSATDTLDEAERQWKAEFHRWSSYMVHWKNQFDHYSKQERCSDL

[2] = molecular target: T1, Acetylcholinesterase (Mus musculus); conditions: Brain, at 50 µM
Acetylcholinesterase = molecular target: T2, Acetylcholinesterase (Mus musculus, UniProt P21836); set-up: species or system LACA
T2 sequence (P21836 whole entry): T1 sequence (whole entry)

Mus musculus [3] = test: Cognition enhancing effect in albino mouse assessed as reversal of scopolamine-induced memory deficit by measuring reduction in number of mistake at 0.5 mg/kg, ip treated 5 mins post scopolamine challenge by step down passive avoidance test; type: functional, organism-based
Mus musculus [4] = test: Cognition enhancing effect in albino mouse assessed as reversal of scopolamine-induced memory deficit by measuring latency time at 0.5 mg/kg, ip treated 5 mins post scopolamine challenge by step down passive avoidance test (reference value: 68.16 +/- 0.4 sec); type: functional
[5] = molecular target: T1, Acetylcholinesterase (Mus musculus); conditions: Brain, at 5 µM
[6] = molecular target: T1, Acetylcholinesterase (Mus musculus); conditions: Brain, at 25 µM
[7] = molecular target: T1, Acetylcholinesterase (Mus musculus); conditions: Brain, at 1 µM
Mus musculus [8] = test: Cognition enhancing effect in albino mouse assessed as reversal of scopolamine-induced memory deficit by measuring basal latency time at 0.5 mg/kg, ip treated 5 mins post scopolamine challenge by step down passive avoidance test (reference value: 63.93 +/- 2.6 sec); type: functional
[9] = molecular target: T1, Acetylcholinesterase (Mus musculus); conditions: Brain, at 10 µM

SMILES | inhibition [1] | inhibition [2] | IC50 (Acetylcholinesterase) | Activity (Mus musculus [3]) | Time (Mus musculus [4]) | inhibition [5] | inhibition [6] | inhibition [7] | Time (Mus musculus [8]) | inhibition [9]
COc1cc2c(cc1OC)C(=O)C(CC1CCN(CC(=O)Cc3nc4ccccc4s3)CC1)C2 (stereo not given) | 4.62% |  |  |  |  |  |  |  |  | 
COc1cc2c(cc1OC)C(=O)C(CC1CCN(CC(=O)Cc3nc4ccc(Cl)cc4s3)CC1)C2 (stereo not given) | 2.13% |  |  |  |  |  |  |  |  | 
O=C(Oc1cccc(/C=C2\Cc3ccccc3C2=O)c1)c1ccc(CCl)cc1 |  | 53.3% | 79.7 µM | Active | 8.11 s | 66.1% | 56.3% | 67.6% | 14.82 s | 65.3%
COc1cc2c(cc1OC)C(=O)C(CC1CCN(CC(=O)Cc3nc4cc(OC)c(OC)cc4s3)CC1)C2 (stereo not given) | 3.2% |  |  |  |  |  |  |  |  | 
O=C(Oc1cccc(/C=C2\Cc3ccccc3C2=O)c1)c1ccc(F)cc1 |  | 54.8% | 40.6 µM | Active | 9.9 s | 35.5% | 51.6% | 33.9% | 22.06 s | 38.7%
COc1cc2c(cc1OC)C(=O)C(CC1CCN(CC(=O)Nc3ccc(C)cc3)CC1)C2 (stereo not given) | 13.9% |  |  |  |  |  |  |  |  | 
O=C(Oc1cccc(/C=C2\Cc3ccccc3C2=O)c1)c1cc(C(F)(F)F)cc(C(F)(F)F)c1 |  | 67.7% | 12 µM | Active | 6.98 s | 46.8% | 59.7% | 38.7% | 12.63 s | 53.2%
COc1cc2c(cc1OC)C(=O)C(CC1CCN(CC(=O)Nc3ccc(Cl)cc3)CC1)C2 (stereo not given) | 2.74% |  |  |  |  |  |  |  |  | 
COc1cc2c(cc1OC)C(=O)C(CC1CCN(Cc3ccccc3)CC1)C2 (stereo not given) [DONEPEZIL] |  |  |  | Active | 11.52 s |  |  |  | 17.67 s | 
COc1cc2c(cc1OC)C(=O)C(CC1CCN(CC(=O)Cc3nc4ccc(F)cc4s3)CC1)C2 (stereo not given) | 1.24% |  |  |  |  |  |  |  |  | 
COc1cc2c(cc1OC)C(=O)C(CC1CCN(CC(=O)Nc3ccc([N+](=O)[O-])cc3)CC1)C2 (stereo not given) | 8.67% |  |  |  |  |  |  |  |  | 
O=C(Oc1cccc(/C=C2\Cc3ccccc3C2=O)c1)c1cc(Cl)cc(Cl)c1 |  | 51.6% | 43.3 µM | Active | 12.65 s | 41.9% | 43.5% | 37% | 19.86 s | 33.9%
COc1ccc2nc(CC(=O)CN3CCC(CC4Cc5cc(OC)c(OC)cc5C4=O)CC3)sc2c1 (stereo not given) | 3.72% |  |  |  |  |  |  |  |  | 
O=C(Oc1cccc(/C=C2\Cc3ccccc3C2=O)c1)c1ccc([N+](=O)[O-])cc1 |  | 51% | 48.8 µM | Active | 7.98 s | 68.3% | 60.8% | 72.1% | 14.23 s | 65.3%
O=C(Oc1cccc(/C=C2\Cc3ccccc3C2=O)c1)c1cccc(CCl)c1 |  | 59.3% | 27.1 µM | Active | 11.65 s | 70.6% | 72.9% | 75.9% | 20.86 s | 56.3%
O=C(Oc1cccc(/C=C2\Cc3ccccc3C2=O)c1)c1ccccc1F |  | 32.9% | 14.1 µM | Active | 5.9 s | 48.8% | 35.2% | 80.4% | 13.72 s | 40.5%
O=C(Oc1cccc(/C=C2\Cc3ccccc3C2=O)c1)c1ccccc1 |  | 67.7% | 34.3 µM | Active | 10.01 s | 27.4% | 48.4% | 30.6% | 16.01 s | 37.1%
COc1cc2c(cc1OC)C(=O)C(CC1CCN(CC(=O)Cc3nc4ccc(C)cc4s3)CC1)C2 (stereo not given) | 5.82% |  |  |  |  |  |  |  |  | 
COc1ccc(NC(=O)CN2CCC(CC3Cc4cc(OC)c(OC)cc4C3=O)CC2)cc1OC (stereo not given) | 7.33% |  |  |  |  |  |  |  |  | 
O=C(Oc1cccc(/C=C2\Cc3ccccc3C2=O)c1)c1cccc(OC(F)(F)F)c1 |  | 78.2% | 12.3 µM | Active | 12.01 s | 72.1% | 91.7% | 73.6% | 27.67 s | 64.6%
COc1cc(C(=O)Oc2cccc(/C=C3\Cc4ccccc4C3=O)c2)cc(OC)c1OC |  | 32.9% | 14.1 µM | Active | 6.08 s | 32.2% | 78.9% | 69.1% | 13.81 s | 72.1%
COc1ccc(NC(=O)CN2CCC(CC3Cc4cc(OC)c(OC)cc4C3=O)CC2)cc1 (stereo not given) | 12.8% |  |  |  |  |  |  |  |  | 
COc1cc2c(cc1OC)C(=O)C(CC1CCN(CC(=O)Cc3nc4ccc([N+](=O)[O-])cc4s3)CC1)C2 (stereo not given) | 5.9% |  |  |  |  |  |  |  |  | 
COc1ccc(C(=O)Oc2cccc(/C=C3\Cc4ccccc4C3=O)c2)cc1 |  | 48.4% | 38.9 µM | Active | 7.11 s | 32.2% | 41.9% | 30.6% | 14.82 s | 33.9%
COc1cc2c(cc1OC)C(=O)C(CC1CCN(CC(=O)Nc3ccc(F)cc3)CC1)C2 (stereo not given) | 6.19% |  |  |  |  |  |  |  |  | 
